Entries after “also recorded” stand apart in the source; their conditions may differ.
Tests used:
[1] = test system: CD3+ T cells of liver cancer patients; assay: Proliferation / big proliferating T cells / CD25 of CD3+ T cells of liver cancer patients; assay type: cell-based, human; set-up: % big/activated/proliferating T cells: concentration or dose not given beside the values; conditions: for % big/activated/proliferating T cells / Fold increase (big/activated/proliferating T cells): T cells of liver cancer patient one; for % big/activated/proliferating T cells: 60 hours culture; for Fold increase (big/activated/proliferating T cells): vs untreated; for number of T cells present in culture (FIG. 1): 60 hours after administration
Protocol: Blood was drawn from two patients suffering from liver cancer, patient one and patient two who both suffer from hepatocellular carcinoma. 15 mLs of blood yielded roughly 2.5×10^7 peripheral blood leucocytes, from which approximately […] positive T cells were isolated. The cells were cultured as described above, and the effects of various molecules and their combinations on those T cells were examined.
Cell proliferation was monitored in culture for 60 hours after administration of the molecule/s (FIG. 1).

[2] = test system: PD-1 expressing CD3+ normal human T cells; assay: PD-1 surface expression on CD3+ T cells of healthy donors after treatment (1, 18, 24 Hr); assay type: cell-based; conditions: for % reduction in % of T cells expressing PD-1: vs untreated
Protocol: (§1) Peripheral blood lymphocytes (PBLs) were separated from normal human leukocytes of healthy donors by Ficol separation and CD3 positive T cells were separated by anti-CD3 antibody-coupled magnetic beads. The CD3+ T cells were cultured in RPMI 1640 medium supplemented with 10% heat inactivated fetal calf serum (FCS), 1% L-Glutamine, 1% sodium pyruvate, 1% non-essential amino acids, and 1% antibiotics. The cells were usually maintained for, for on average 24 hours after their separation before various molecules were added and their effects on the T cells were measured. […] It was therefore tested if neurotransmitters, neuropeptides, and/or modulators of voltage-gated ion channels can reduce PD-1 on the cell surface of T cells. Such a reduction would allow the T cells to escape the tumor-induced T cell suppression, and the activated T cells could then attach the cancer cells. As such, the expression of PD-1 on the surface of these treated and untreated T cells was monitored. […] Shorter in vitro incubation times are frequently preferable when cells are going to subsequently be returned to a subject, as they end to decrease the risk of an adverse reaction.

[3] = test system: PD-1 expressing smaller non-proliferating CD3+ normal human T cells; assay: PD-1 expression on smaller non-proliferating T cells (FSC/SSC gating), 1 Hr treatment; assay type: cell-based; conditions: 10−8M; for % reduction in % of smaller T cells expressing PD-1: vs untreated
Protocol: as §1
(§2) CD3 positive T cells of patients are a heterogenous mix of different types of T cells. […] Using this FCS and SSC analysis, T cells can be distinguished and separated by size into large proliferating T cells and smaller non-proliferating T cells.

[4] = test system: PD-1 expressing large proliferating CD3+ normal human T cells; assay: PD-1 expression on large proliferating T cells (FSC/SSC gating), 1 Hr treatment; assay type: cell-based; conditions: 10^−8M; for % reduction in % of large T cells expressing PD-1: vs untreated
Protocol: as §1, §2

SMILES | % big/activated/proliferating T cells [1] | Fold increase (big/activated/proliferating T cells) [1] | number of T cells present in culture (FIG. 1) ([1]; patient one) | % of T cells expressing PD-1 ([2]; 1 Hr treatment, 10^−8M) | % reduction in % of T cells expressing PD-1 ([2]; 1 Hr treatment, 10^−8M) | % of T cells expressing PD-1 ([2]; 18 Hr treatment, 10^−7M) | % reduction in % of T cells expressing PD-1 ([2]; 18 Hr treatment, 10^−7M) | % of T cells expressing PD-1 ([2]; 24 Hr treatment, 10^−7M) | % reduction in % of T cells expressing PD-1 ([2]; 24 Hr treatment, 10^−7M) | % of T cells expressing PD-1 ([2]; 24 Hr treatment, 10^−8M) | % reduction in % of T cells expressing PD-1 ([2]; 24 Hr treatment, 10^−8M) | effect on PD-1 expressing T cells ([2]; incubated for 24 hours) | % of smaller T cells expressing PD-1 [3] | % reduction in % of smaller T cells expressing PD-1 [3] | % of large T cells expressing PD-1 [4] | % reduction in % of large T cells expressing PD-1 [4] | increase in the number of big, proliferating CD3 positive cells (ranking in words) ([1]; patient one, flow cytometer)
NCCc1ccc(O)c(O)c1 [Dopamine] | 14% | 3-fold | increased the number of T cells present in culture; also recorded: most effective | 30.3% | 17% | 24.90% | 28.40% | 10% | 51.05% | 22.4% | −9.64% | did not have a positive effect | 40.4% | 8.0% | 19.1% | 11.2% | 
N[C@@H](CCC(=O)O)C(=O)O [Glutamate] | 24.80% | 5.4-fold | increased the number of T cells present in culture; also recorded: most effective | 24.65% | 33% | 23.70% | 31.7% | 15.8% | 22.64% | 16.3% | 20.2% |  | 32.8% | 25.3% | 13.0% | 39.5% | most effective
